The results in this text go back to patent publication US8557812B2, “Small molecule inhibitors of anti-apoptotic BCL-2 family members and the uses thereof” (The Regents of the University of Michigan, priority 2004, dated 2013).

This assay deals with Bcl-2 (Homo sapiens, UniProt P10415). Briefly: Fluorescence polarization in vitro Bcl-2 binding assay. The method, then:
Bcl-2 used in this assay is a recombinant His-fused soluble protein. […] Inc., Research Triangle Park, N.C.). […] The unlabeled Bid peptide is used as the positive control. The Ki values were calculated using our developed equation for FP assay (Nikolovska-Coleska et al., Anal. Biochem., 2004, in press). The program for calculating a Ki value is available free of charge via the Internet at http://sw16.im.med.umich.edu/software/calc_ki/.

Where only a bound is given, the exact number is not on record here.

Sequence of Bcl-2 (P10415 92-205 limits assumed): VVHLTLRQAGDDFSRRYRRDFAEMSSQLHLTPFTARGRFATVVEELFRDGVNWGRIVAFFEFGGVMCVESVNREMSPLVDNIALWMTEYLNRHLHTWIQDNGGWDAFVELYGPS

Regarding `CN(CCCc1ccccc1)S(=O)(=O)c1cc(C(=O)N2CCc3ccc(S(=O)(=O)NCCc4ccccc4)cc3C2)c(O)c(O)c1O` [TM-1206], the IC50 is not above 1000 nM.
The compound `Oc1c(Cc2ccccc2)cc(-c2ccc(CCCCCc3ccccc3)cc2)c(O)c1O` [TW-1, 5-Benzyl-4′-(5-phenyl-pentyl)-biphenyl-2,3,4-triol] returned a 50% inhibitory concentration (IC50) of more than 1000 nM.
`CCCCCCCCCCc1ccc(-c2cc(Cc3ccccc3)c(O)c(O)c2O)cc1` [TW-2, 5-Benzyl-4′-decyl-biphenyl-2,3,4-triol] had a 50% inhibitory concentration (IC50) of more than 1000 nM.
In turn, `CC(C)(C)c1ccc(-c2cc(Cc3ccccc3)c(O)c(O)c2O)cc1` [TW-3, 5-Benzyl-4′-tert-butyl-biphenyl-2,3,4-triol] came in with an IC50 of more than 1000 nM.
With `CC(C)c1cc(-c2ccc(C(C)(C)C)cc2)c(O)c(O)c1O` [TW-4, 4′-tert-Butyl-5-isopropyl-biphenyl-2,3,4-triol], the IC50 is more than 1000 nM.
With `CCCCCCCCCCc1ccc(-c2cc(C(C)C)c(O)c(O)c2O)cc1` [TW-5, 4′-Decyl-5-isopropyl-biphenyl-2,3,4-triol], the half-inhibitory concentration (IC50) is more than 1000 nM.
On to `CCCCCCCCCCCc1ccc(-c2cc(CCCc3ccccc3)c(O)c(O)c2O)cc1` [TW-6, 5-(3-Phenyl-propyl)-4′-undecyl-biphenyl-2,3,4-triol], for which the IC50 was more than 1000 nM.
Turning to `CCCCCCCCCCCc1ccc(-c2cc(CCc3ccc(C(C)(C)C)cc3)c(O)c(O)c2O)cc1` [TW-7, 5-[2-(4-tert-Butyl-phenyl)-ethyl]-4′-unedcyl-biphenyl-2,3,4-triol], the half-inhibitory concentration (IC50) is more than 1000 nM.
Compound `CCCCCCCCCCCc1ccc(-c2cc(Cc3ccc(C(C)(C)C)cc3)c(O)c(O)c2O)cc1` [TW-8, 5-(4-Tertbutyl-benzyl)-4′-undecyl-biphenyl-2,3,4-triol] showed a half-inhibitory concentration (IC50) of more than 1000 nM.
Regarding `CCCCCCCCCCCc1ccc(-c2cc(Cc3ccc(C(C)C)cc3)c(O)c(O)c2O)cc1` [TW-9, 5-(4-Isopropyl-benzyl)-4′-undecyl-biphenyl-2,3,4-triol], the IC50 was more than 1000 nM.
`Oc1c(Cc2ccccc2)cc(-c2ccc(CCCc3ccccc3)cc2)c(O)c1O` [TW-11, 5-Benzyl-4′-(3-phenyl-propyl)-biphenyl-2,3,4-triol] registered an IC50 of more than 1000 nM.
On to `Oc1c(Cc2ccccc2)cc(-c2ccc(Cc3ccccc3)cc2)c(O)c1O` [TW-12, 5,4′-Dibenzyl-biphenyl-2,3,4-triol], for which the IC50 was more than 1000 nM.
`CCCCCCCCCCCc1ccc(-c2cc(Cc3ccccc3C(C)C)c(O)c(O)c2O)cc1` [TW-14, 5-(2-Isopropyl-benzyl)-4′-undecyl-biphenyl-2,3,4-triol]: the half-inhibitory concentration (IC50) is more than 1000 nM.
Turning to `O=C(Nc1cc(S(=O)(=O)c2ccc(Cl)cc2)ccc1Cl)c1cc(Cc2ccccc2)c(O)c(O)c1O` [TW-17], the IC50 is more than 1000 nM.
Consider `O=C(Nc1ccc(Oc2ccccc2)cc1)c1cc(CCc2ccccc2)c(O)c(O)c1O` [TW-20, N-(4-phenyloxy-phenyl)-2,3,4-trihydroxy-5-phenethyl-benzamide], for which the IC50 was more than 1000 nM.
The result for `O=C(Nc1cccc(S(=O)(=O)c2ccccc2)c1)c1cc(CCc2ccccc2)c(O)c(O)c1O` [TW-21, N-(3-Benzenesulfonyl-phenyl)-2,3,4-trihydroxy-5-phenethyl-benzamide] reads more than 1000 nM; that for `CC(C)(C)c1ccc(CCc2cc(C(=O)Nc3cccc(S(=O)(=O)c4ccccc4)c3)c(O)c(O)c2O)cc1` [TW-22, N-(3-Benzenesulfonyl-phenyl)-5-[2-(4-tert-butyl-phenyl)-ethyl]-2,3,4-trihydroxy-benzamide], more than 1000 nM; that for `CC(C)c1cccc(NC(=O)c2cc(CCc3ccccc3)c(O)c(O)c2O)c1` [TW-24, N-(3-isopropyl-phenyl)-2,3,4-trihydroxy-5-phenethyl-benzamide], more than 1000 nM.
`CC(C)(C)c1ccc(CNC(=O)c2cc(CCc3ccccc3)c(O)c(O)c2O)cc1` [TW-25, N-(4-tert-Butyl-benzyl)-2,3,4-trihydroxy-5-phenethyl-benzamide] had an IC50 of more than 1000 nM.
For the compound `O=C(Nc1ccc(Cl)c(Cl)c1)c1cc(CCc2ccccc2)c(O)c(O)c1O` [TW-27], the IC50 was more than 1000 nM.
The result for `Cc1ccccc1NC(=O)c1cc(CCc2ccccc2)c(O)c(O)c1O` [TW-28] reads more than 1000 nM.
The result for `O=C(Nc1cc(S(=O)(=O)c2ccc(Cl)cc2)ccc1Cl)c1cc(CCc2ccccc2)cc(O)c1O` [TW-34, N-[2-Chloro-5-(4-chloro-benzenesulfonyl)-phenyl]-2,3-dihydroxyl-phenethyl-benzamide] reads more than 1000 nM; that for `CC(C)c1ccccc1Cc1cc(C(=O)Nc2cc(S(=O)(=O)c3ccc(Cl)cc3)ccc2Cl)c(O)c(O)c1O` [TW-35, N-[2-Chloro-5-(4-chloro-benzenesulfonyl)-phenyl]-2,3,4-trihydroxy-5-(2-isopropyl-benzyl)-benzamide], more than 1000 nM.
The compound `CC(C)(C)c1ccc(CCc2cc(C(=O)Nc3ccc(S(=O)(=O)c4ccccc4C(C)(C)C)cc3)c(O)c(O)c2O)cc1` [TW-38, N-[(2-tert-Butyl-benzenesulfonyl)-phenyl]-2,3,4-trihydroxy-5-(4-tert-butyl-phenethyl)-benzamide] returned a half-inhibitory concentration (IC50) not above 1000 nM.
Turning to `CC(C)(C)c1ccc(Cc2cc(C(=O)Nc3cc(S(=O)(=O)c4ccc(Cl)cc4)ccc3Cl)c(O)c(O)c2O)cc1` [TW-39, N-[2-Chloro-5-(4-chloro-benzenesulfonyl)-phenyl]-2,3,4-trihydroxy-5-(4-tert-butyl-benzyl)-benzamide], the IC50 is more than 1000 nM.
The result for `CC(C)(C)c1ccc(Cc2cc(C(=O)Nc3ccc(S(=O)(=O)c4ccccc4C(C)(C)C)cc3)c(O)c(O)c2O)cc1` [TW-41, N-[4-(2-tert-Butyl-benzenesulfonyl)-phenyl]-2,3,4-trihydroxy-5-(4-tert-butyl-benzyl)-benzamide] reads more than 1000 nM; that for `CC(C)CCCc1ccccc1Cc1cc(C(=O)Nc2ccc(S(=O)(=O)c3ccccc3C(C)(C)C)cc2)c(O)c(O)c1O` [TW-42, N-[4-(2-tert-Butyl-benzenesulfonyl)-phenyl]-2,3,4-trihydroxy-5-(2-iso-hexyl-benzyl)-benzamide], more than 1000 nM.
The result for `CCc1cc(C(=O)Nc2cc(S(=O)(=O)c3ccc(Cl)cc3)ccc2Cl)c(O)c(O)c1O` [TW-45, N-[2-Chloro-5-(4-chloro-benzenesulfonyl)-phenyl]-2,3,4-trihydroxy-5-ethyl-benzamide] reads not above 1000 nM; that for `O=C(Nc1cc(S(=O)(=O)c2ccc(Cl)cc2)ccc1Cl)c1ccc(O)c(O)c1O` [TW-46, N-[2-Chloro-5-(4-chloro-benzenesulfonyl)-phenyl]-2,3,4-trihydroxy-benzamide], not above 1000 nM; that for `CC(C)CCCc1cc(C(=O)Nc2cc(S(=O)(=O)c3ccc(Cl)cc3)ccc2Cl)c(O)c(O)c1O` [TW-47, N-[2-Chloro-5-(4-chloro-benzenesulfonyl)-phenyl]-2,3,4-trihydroxy-5-iso-hexyl-benzamide], not above 1000 nM.
The compound `CC(C)c1ccccc1Cc1cc(C(=O)Nc2ccccc2)c(O)c(O)c1O` [TW-52, N-Phenyl-2,3,4-trihydroxy-5-(2-iso-propyl-benzyl)-benzamide] yielded an IC50 of more than 1000 nM.
With `CC(C)c1ccccc1Cc1cc(C(=O)Nc2ccccc2Cl)c(O)c(O)c1O` [TW-53, N-(2-Chloro-phenyl)-2,3,4-trihydroxy-5-(2-iso-propyl-benzyl)-benzamide], the IC50 is more than 1000 nM.
Take `CNC(=O)c1cc(Cc2ccccc2C(C)C)c(O)c(O)c1O` [TW-55, N-Methyl-2,3,4-trihydroxy-5-(2-isopropyl-benzyl)-benzamide]: the IC50 is more than 1000 nM.
`O=C(Nc1ccc(S(=O)(=O)c2ccccc2)cc1)c1cc(Cc2ccccc2)c(O)c(O)c1O` [TW-56, N-(Benzenesulfonyl-phenyl)-2,3,4-trihydroxy-5-benzyl-benzamide] registered an IC50 of more than 1000 nM.
`CC(C)(C)c1ccccc1S(=O)(=O)c1ccc(NC(=O)c2cc(S(=O)(=O)NCCCc3ccccc3)cc(O)c2O)cc1` [TW-159] gave a half-inhibitory concentration (IC50) not above 1000 nM.
Compound `CC(C)(C)c1ccccc1S(=O)(=O)c1ccc(NC(=O)c2cc(S(=O)(=O)NCCCCc3ccccc3)cc(O)c2O)cc1` [TW-160] returned an IC50 of more than 1000 nM.
`CC(C)(C)c1ccccc1S(=O)(=O)c1ccc(NC(=O)c2cc(S(=O)(=O)NCCc3ccccc3)cc(O)c2O)cc1` [TW-161] yielded a concentration for half-maximal inhibition (IC50) of more than 1000 nM.
In turn, `O=C(Nc1ccccc1)c1cc(S(=O)(=O)Nc2ccccc2)cc(O)c1O` [TW-162] had an IC50 of more than 1000 nM.
Take `O=C(Nc1ccc(S(=O)(=O)N2CCN(c3ccccc3)CC2)cc1)c1cc(S(=O)(=O)N2CCc3ccccc3C2)cc(O)c1O` [TW-163]: the 50% inhibitory concentration (IC50) was more than 1000 nM.
For the compound `O=C(Nc1ccc(S(=O)(=O)N2CCOCC2)cc1)c1cc(S(=O)(=O)N2CCc3ccccc3C2)cc(O)c1O` [TW-164], the IC50 was not above 1000 nM.
`COc1ccc(S(=O)(=O)Nc2ccccc2C(C)C)cc1NC(=O)c1cc(S(=O)(=O)N2CCc3ccccc3C2)cc(O)c1O` [TW-165] yielded an IC50 not above 1000 nM.
The result for `O=C(NCCc1ccccc1)c1ccc(C2=Cc3c(c(O)c(O)c(O)c3-c3ccc(-c4ccccc4)cc3)C2=O)cc1` [TW-166] reads not above 1000 nM.
In the case of `CC(C)(C)c1ccc(CCc2cc(O)c(O)c(C(=O)Nc3ccc(S(=O)(=O)N4CCN(c5ccccc5)CC4)cc3)c2)cc1` [TW-167], the IC50 was more than 1000 nM.
Turning to `CC(C)(C)c1ccc(CCc2cc(O)c(O)c(C(=O)Nc3ccc(S(=O)(=O)N4CCN(c5ncccn5)CC4)cc3)c2)cc1` [TW-169], the half-inhibitory concentration (IC50) was not above 1000 nM.
As for `CC(C)(C)c1ccc(CCc2cc(O)c(O)c(C(=O)Nc3ccc(S(=O)(=O)N4CCC(Cc5ccccc5)CC4)cc3)c2)cc1` [TW-170], the IC50 is more than 1000 nM.
As to `O=C1C(c2ccc(C(=O)N3CCC(Cc4ccccc4)CC3)cc2)=Cc2c1c(O)c(O)c(O)c2-c1ccc(-c2ccccc2)cc1` [TW-172], the 50% inhibitory concentration (IC50) was not above 1000 nM.
The result for `O=C(Nc1ccc(S(=O)(=O)N2CCC(Nc3ccccc3-c3ccccc3)CC2)cc1)c1cc(S(=O)(=O)N2CCc3ccccc3C2)cc(O)c1O` [TW-173] reads more than 1000 nM; that for `CC(C)(C)c1ccccc1NC1CCN(S(=O)(=O)c2ccc(NC(=O)c3cc(S(=O)(=O)N4CCc5ccccc5C4)cc(O)c3O)cc2)CC1` [TW-174], more than 1000 nM.
